Laboratory results from the supplement of paper PMC10307832.

Assays:
Experiment in all cases: relative viability (nuclei count vs DMSO), 5 days (fraction); higher = more cells survive
[1] = compound: NS(=O)(=O)OC[C@@H]1C[C@@H](n2ccc3c(N[C@H]4CCc5ccccc54)ncnc32)C[C@@H]1O [MLN4924] + NC(=O)Nc1cc(-c2cccc(F)c2)sc1C(=O)N[C@H]1CCCNC1 [AZD7762] (partner 0.2 µM)
In short: (§1)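 Lung cancer cell lines, seeded in 1536-well plates, were treated the following day by pin tool with a single drug or with five library-drug doses (not always all listed) in √10 steps on top of a fixed anchor-drug dose. Cells were fixed and nuclei stained in one step after 5 days, and nuclei were counted. Relative viability is the nuclei count for treated wells divided by that for vehicle wells, reported as medians of duplicate plates.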

[2] = compound: NS(=O)(=O)OC[C@@H]1C[C@@H](n2ccc3c(N[C@H]4CCc5ccccc54)ncnc32)C[C@@H]1O [MLN4924] + CC(=O)Nc1cccc(-n2c(=O)n(C3CC3)c(=O)c3c(Nc4ccc(I)cc4F)n(C)c(=O)c(C)c32)c1 [Trametinib] (partner 0.02 µM)
In short: as §1

[3] = compound: NS(=O)(=O)OC[C@@H]1C[C@@H](n2ccc3c(N[C@H]4CCc5ccccc54)ncnc32)C[C@@H]1O [MLN4924] + CC(=O)c1c(C)c2cnc(Nc3ccc(N4CCNCC4)cn3)nc2n(C2CCCC2)c1=O [Palbociclib] (partner 0.5 µM)
In short: as §1

[4] = compound: C1CC(C1)(C(=O)O)C(=O)O.[NH2-].[NH2-].[Pt+2] [Carboplatin] + CS(=O)(=O)N1CCN(Cc2cc3nc(-c4cccc5[nH]ncc45)nc(N4CCOCC4)c3s2)CC1 [Pictilisib] (partner 1 µM)
In short: as §1

Cell Line: NCI-H1648
- relative viability ([1]; first compound 0.04 µM): 0.777
- relative viability ([1]; first compound 0.1265 µM): 0.727
- relative viability ([1]; first compound 0.4 µM): 0.526
- relative viability ([1]; first compound 1.265 µM): 0.33
- relative viability ([1]; first compound 4 µM): 0.223
- relative viability ([2]; first compound 0.04 µM): 0.481
- relative viability ([2]; first compound 0.1265 µM): 0.353
- relative viability ([2]; first compound 0.4 µM): 0.332
- relative viability ([2]; first compound 1.265 µM): 0.314
- relative viability ([2]; first compound 4 µM): 0.306
- relative viability ([3]; first compound 0.04 µM): 0.256
- relative viability ([3]; first compound 0.1265 µM): 0.231
- relative viability ([3]; first compound 0.4 µM): 0.371
- relative viability ([3]; first compound 1.265 µM): 0.259
- relative viability ([3]; first compound 4 µM): 0.302

Cell Line: NCI-H1650
- relative viability ([2]; first compound 0.04 µM): 0.597
- relative viability ([2]; first compound 0.1265 µM): 0.32
- relative viability ([2]; first compound 0.4 µM): 0.232
- relative viability ([2]; first compound 1.265 µM): 0.131
- relative viability ([2]; first compound 4 µM): 0.156
- relative viability ([4]; first compound 0.08 µM): 0.741
- relative viability ([4]; first compound 0.253 µM): 0.651
- relative viability ([4]; first compound 0.8 µM): 0.563
- relative viability ([4]; first compound 2.53 µM): 0.519
- relative viability ([4]; first compound 8 µM): 0.416
- relative viability ([3]; first compound 0.04 µM): 0.286
- relative viability ([3]; first compound 0.1265 µM): 0.221
- relative viability ([3]; first compound 0.4 µM): 0.19
- relative viability ([3]; first compound 1.265 µM): 0.131
- relative viability ([3]; first compound 4 µM): 0.136

Cell Line: NCI-H1703
- relative viability ([1]; first compound 0.04 µM): 0.135
- relative viability ([1]; first compound 0.1265 µM): 0.126
- relative viability ([1]; first compound 0.4 µM): 0.111
- relative viability ([1]; first compound 1.265 µM): 0.11
- relative viability ([1]; first compound 4 µM): 0.123
- relative viability ([4]; first compound 0.08 µM): 0.261
- relative viability ([4]; first compound 0.253 µM): 0.229
- relative viability ([4]; first compound 0.8 µM): 0.231
- relative viability ([4]; first compound 2.53 µM): 0.251
- relative viability ([4]; first compound 8 µM): 0.245

Cell Line: NCI-H2009
- relative viability ([2]; first compound 0.04 µM): 0.342
- relative viability ([2]; first compound 0.1265 µM): 0.322
- relative viability ([2]; first compound 0.4 µM): 0.238
- relative viability ([2]; first compound 1.265 µM): 0.136
- relative viability ([2]; first compound 4 µM): 0.105
- relative viability ([4]; first compound 0.08 µM): 0.825
- relative viability ([4]; first compound 0.253 µM): 0.816
- relative viability ([4]; first compound 0.8 µM): 0.761
- relative viability ([4]; first compound 2.53 µM): 0.79
- relative viability ([4]; first compound 8 µM): 0.558
- relative viability ([3]; first compound 0.04 µM): 0.0712
- relative viability ([3]; first compound 0.1265 µM): 0.0898
- relative viability ([3]; first compound 0.4 µM): 0.0671
- relative viability ([3]; first compound 1.265 µM): 0.0534
- relative viability ([3]; first compound 4 µM): 0.0501

Cell Line: NCI-H2023
- relative viability ([2]; first compound 0.04 µM): 0.549
- relative viability ([2]; first compound 0.1265 µM): 0.495
- relative viability ([2]; first compound 0.4 µM): 0.328
- relative viability ([2]; first compound 1.265 µM): 0.0604
- relative viability ([2]; first compound 4 µM): 0.0809
- relative viability ([4]; first compound 0.08 µM): 0.262
- relative viability ([4]; first compound 0.253 µM): 0.27
- relative viability ([4]; first compound 0.8 µM): 0.261
- relative viability ([4]; first compound 2.53 µM): 0.192
- relative viability ([4]; first compound 8 µM): 0.171
- relative viability ([3]; first compound 0.04 µM): 0.496
- relative viability ([3]; first compound 0.1265 µM): 0.366
- relative viability ([3]; first compound 0.4 µM): 0.207
- relative viability ([3]; first compound 1.265 µM): 0.0822
- relative viability ([3]; first compound 4 µM): 0.0604

Cell Line: NCI-H2228
- relative viability ([2]; first compound 0.04 µM): 0.537
- relative viability ([2]; first compound 0.1265 µM): 0.496
- relative viability ([2]; first compound 0.4 µM): 0.255
- relative viability ([2]; first compound 1.265 µM): 0.168
- relative viability ([2]; first compound 4 µM): 0.125
- relative viability ([4]; first compound 0.08 µM): 0.547
- relative viability ([4]; first compound 0.253 µM): 0.385
- relative viability ([4]; first compound 0.8 µM): 0.446
- relative viability ([4]; first compound 2.53 µM): 0.326
- relative viability ([4]; first compound 8 µM): 0.312
- relative viability ([3]; first compound 0.04 µM): 0.743
- relative viability ([3]; first compound 0.1265 µM): 0.891
- relative viability ([3]; first compound 0.4 µM): 0.277
- relative viability ([3]; first compound 1.265 µM): 0.188
- relative viability ([3]; first compound 4 µM): 0.13

Cell Line: NCI-H2342
- relative viability ([1]; first compound 0.04 µM): 0.412
- relative viability ([1]; first compound 0.1265 µM): 0.568
- relative viability ([1]; first compound 0.4 µM): 0.551
- relative viability ([1]; first compound 1.265 µM): 0.523
- relative viability ([1]; first compound 4 µM): 0.452
- relative viability ([2]; first compound 0.04 µM): 0.834
- relative viability ([2]; first compound 0.1265 µM): 0.757
- relative viability ([2]; first compound 0.4 µM): 0.759
- relative viability ([2]; first compound 1.265 µM): 0.727
- relative viability ([2]; first compound 4 µM): 0.54
- relative viability ([3]; first compound 0.04 µM): 0.53
- relative viability ([3]; first compound 0.1265 µM): 0.575
- relative viability ([3]; first compound 0.4 µM): 0.591
- relative viability ([3]; first compound 1.265 µM): 0.635
- relative viability ([3]; first compound 4 µM): 0.449

Cell Line: SK-LU-1
- relative viability ([2]; first compound 0.04 µM): 0.556
- relative viability ([2]; first compound 0.1265 µM): 0.652
- relative viability ([2]; first compound 0.4 µM): 0.347
- relative viability ([2]; first compound 1.265 µM): 0.269
- relative viability ([2]; first compound 4 µM): 0.234
- relative viability ([4]; first compound 0.08 µM): 0.542
- relative viability ([4]; first compound 0.253 µM): 0.664
- relative viability ([4]; first compound 0.8 µM): 0.528
- relative viability ([4]; first compound 2.53 µM): 0.542
- relative viability ([4]; first compound 8 µM): 0.411
- relative viability ([3]; first compound 0.04 µM): 0.467
- relative viability ([3]; first compound 0.1265 µM): 0.43
- relative viability ([3]; first compound 0.4 µM): 0.253
- relative viability ([3]; first compound 1.265 µM): 0.195
- relative viability ([3]; first compound 4 µM): 0.202

Cell Line: SK-MES-1
- relative viability ([2]; first compound 0.04 µM): 0.631
- relative viability ([2]; first compound 0.1265 µM): 0.676
- relative viability ([2]; first compound 0.4 µM): 0.727
- relative viability ([2]; first compound 1.265 µM): 0.295
- relative viability ([2]; first compound 4 µM): 0.255
- relative viability ([4]; first compound 0.08 µM): 0.402
- relative viability ([4]; first compound 0.253 µM): 0.272
- relative viability ([4]; first compound 0.8 µM): 0.358
- relative viability ([4]; first compound 2.53 µM): 0.328
- relative viability ([4]; first compound 8 µM): 0.303
- relative viability ([3]; first compound 0.04 µM): 0.294
- relative viability ([3]; first compound 0.1265 µM): 0.207
- relative viability ([3]; first compound 0.4 µM): 0.225
- relative viability ([3]; first compound 1.265 µM): 0.128
- relative viability ([3]; first compound 4 µM): 0.203

Cell Line: SW 900
- relative viability ([1]; first compound 0.1265 µM): 0.806
- relative viability ([1]; first compound 0.4 µM): 0.467
- relative viability ([1]; first compound 1.265 µM): 0.331
- relative viability ([1]; first compound 4 µM): 0.259
- relative viability ([2]; first compound 0.1265 µM): 0.764
- relative viability ([2]; first compound 0.4 µM): 0.449
- relative viability ([2]; first compound 1.265 µM): 0.291
- relative viability ([2]; first compound 4 µM): 0.218
- relative viability ([3]; first compound 0.1265 µM): 0.439
- relative viability ([3]; first compound 0.4 µM): 0.388
- relative viability ([3]; first compound 1.265 µM): 0.231
- relative viability ([3]; first compound 4 µM): 0.231

Cell Line: SW 1573
- relative viability ([2]; first compound 0.04 µM): 0.586
- relative viability ([2]; first compound 0.1265 µM): 0.441
- relative viability ([2]; first compound 0.4 µM): 0.14
- relative viability ([2]; first compound 1.265 µM): 0.0868
- relative viability ([2]; first compound 4 µM): 0.0758
- relative viability ([4]; first compound 0.08 µM): 0.408
- relative viability ([4]; first compound 0.253 µM): 0.603
- relative viability ([4]; first compound 0.8 µM): 0.492
- relative viability ([4]; first compound 2.53 µM): 0.555
- relative viability ([4]; first compound 8 µM): 0.399
- relative viability ([3]; first compound 0.04 µM): 0.375
- relative viability ([3]; first compound 0.1265 µM): 0.306
- relative viability ([3]; first compound 0.4 µM): 0.155
- relative viability ([3]; first compound 1.265 µM): 0.0802
- relative viability ([3]; first compound 4 µM): 0.0896
